Source: PMC8950706, “Influence of Substitutions in the Binding Motif of Proline-Rich Antimicrobial Peptide ARV-1502 on 70S Ribosome Binding and Antimicrobial Activity” (International Journal of Molecular Sciences, 2022)
Structures can show the parent of a compound that is named as a salt.

What was measured:
[1] = tested on: E. coli 70S ribosome; assay: Competitive fluorescence polarization assay against Cf-ARV-1502 (Ki); assay type: binding, E. coli BW25113; settings: 20 nmol/L Cf-ARV-1502, 0.5 µmol/L ribosome, 28 °C, 90 min + 90 min, Ki calculated from IC50; for Ki: read-out: Ki (nmol/L), competition with Cf-ARV-1502
Experimental: E. coli 70S ribosomes were prepared using a previously described protocol that was slightly modified. Briefly, E. coli BW25113 was cultivated in Luria-Bertani (LB) medium and cells were harvested after reaching an optical density of ~4 at 600 nm by centrifugation (5000× g, 15 min, 4 °C, Rotor JLA 8.100, Avanti J-20 XP, Beckmann Coulter, Krefeld, Germany). The cell pellets were frozen and stored at −80 °C. Cells were resuspended in ribosome buffer (2 mL/g cells; 20 mmol/L HEPES-KOH, 6 mmol/L MgCl2, 30 mmol/L NH4Cl, 4 mmol/L 2-mercaptoethanol, pH 7.6). Lysozyme (0.25 g/L cell suspension) was added, and the mixture was incubated on ice for 30 min. Cells were disrupted using the bead mill homogenizer FastPrep-24™ 5G (40 s, 4 m/s, 6 cycles, MP Biomedicals Germany GmbH, Eschwege, Germany) and zirconia/silica beads (0.1 mm diameter). The lysate was centrifuged (1500× g, 5 min, 4 °C, Rotor S4180, Allegra 21R, Beckmann Coulter) and the supernatant was incubated with DNase (5 U/mL) on ice for 60 min.
Dissociation and inhibitory constants were determined in black 384-well-plates (Greiner Bio-One GmbH, Frickenhausen, Germany) blocked with 0.5% (w/v) casein in phosphate buffered saline (PBS, 8.8 mmol/L Na2HPO4×12 H2O, 1.2 mmol/L KH2PO4, 0.3 mol/L NaCl, pH 7.4) containing 0.05% (w/v) Tween® 20 (PBST) overnight at 4 °C and washed three times with PBST.
Ribosome solution was added (10 µmol/L) and the plate was incubated after centrifugation (2 min, 500× g, Rotor S2096, Allegra^TM 21R, Beckmann Coulter) at 28 °C for 90 min. Cf-labeled peptide was added (10 µL; final concentration of 20 nmol/L; final ribosome concentration of 0.5 µmol/L) and the plate was centrifuged and incubated again (90 min, 28 °C, dark). […] Kd and IC50 values were calculated by fitting the data with a variable slope parameter [y = min + (max − min)/(1 + (x/Kd) ^−Hill slope) ] using SigmaPlot 13 (Systat Software Inc., San Jose, CA, USA). The obtained IC50 values were used to calculate the Ki values.

[2] = tested on: E. coli BW25113; assay: Checkerboard assay (FICI); assay type: cell-based, Escherichia coli; settings: E. coli BW25113, 25% MHB2; synergy FICI ≤ 0.5, antagonism FICI ≥ 4; Table S6
Experimental: Synergy was tested in sterile 96-well plates (polystyrene F-bottom, Greiner Bio-One GmbH) using a total volume of 100 μL per well. […] Plates were incubated (37 °C, 20 h) and the optical density recorded at 595 nm using a microplate reader (Victor3, Perkin Elmer Inc., Waltham, MA, USA). The fractional inhibitory concentration index (FICI) was calculated by the equation FICI = […] = (A/MICA) + (B/MICB), where MICA/B are the MICs of an antimicrobial peptide (A) and one of the three tested antibiotics (B) alone and A and B are the MICs of combined antimicrobials. Synergy was defined as FICI ≤ 0.5, antagonism as FICI ≥ 4 and additive or indifference as FICI between 0.5 and 4.

SMILES	Ki [1]	Ki (nmol/L), competition with Cf-ARV-1502 [1]	Ki (nmol/L), competition with Cf-ARV-1502 ([1]; listed as streptomycin)	Checkerboard assay (FICI), antibiotic combined with peptide [2]	Ki (nmol/L), competition with Cf-ARV-1502 ([1]; listed as kanamycin)
O=C(N[C@H](CO)[C@H](O)c1ccc([N+](=O)[O-])cc1)C(Cl)Cl [Chloramphenicol]	1700 ± 481 nmol/L				
[H]/N=C(/N)N[C@H]1[C@H](O)[C@@H](O)[C@H](O[C@@H]2O[C@@H](C)[C@](O)(C=O)[C@H]2O[C@@H]2O[C@@H](CO)[C@H](O)[C@@H](O)[C@@H]2NC)[C@@H](N/C(N)=N\[H])[C@@H]1O [Streptomycin]		no fit	did not affect the binding of Cf-ARV-1502		
CC[C@H]1OC(=O)[C@H](C)[C@@H](O[C@H]2C[C@@](C)(OC)[C@@H](O)[C@H](C)O2)[C@H](C)[C@@H](O[C@@H]2O[C@H](C)C[C@H](N(C)C)[C@H]2O)[C@](C)(O)C[C@@H](C)C(=O)[C@H](C)[C@@H](O)[C@]1(C)O [Erythromycin]	23 ± 1.6 nmol/L				
NC[C@H]1O[C@H](O[C@H]2[C@H](O)[C@@H](O[C@H]3O[C@H](CO)[C@@H](O)[C@H](N)[C@H]3O)[C@H](N)C[C@@H]2N)[C@H](O)[C@@H](O)[C@@H]1O [Kanamycin, kanamycin sulfate]		no fit		neither synergistic nor antagonistic effects	did not affect the binding of Cf-ARV-1502
